Measurements: ChEMBL document CHEMBL3853300, “Synthesis of α-santonin derived acetyl santonous acid triazole derivatives and their bioevaluation for T and B-cell proliferation” (Eur J Med Chem, 2016)

How the values were obtained:
[1] = organism: Mus musculus; test: Cytotoxicity against Balb/c mouse B cells assessed as decrease in cell viability at 100 uM after 48 hrs by MTT assay; format: toxicity, cell-based
[2] = organism: Mus musculus; test: Cytotoxicity against Balb/c mouse B cells assessed as decrease in cell viability at 10 uM after 48 hrs by MTT assay; format: toxicity, cell-based
[3] = organism: Mus musculus; test: Cytotoxicity against Balb/c mouse B cells assessed as decrease in cell viability at 1 uM after 48 hrs by MTT assay; format: toxicity, cell-based
[4] = organism: Mus musculus; test: Cytotoxicity against Balb/c mouse T cells assessed as decrease in cell viability at 100 uM after 48 hrs by MTT assay; format: toxicity, cell-based
[5] = organism: Mus musculus; test: Cytotoxicity against Balb/c mouse T cells assessed as decrease in cell viability at 10 uM after 48 hrs by MTT assay; format: toxicity, cell-based
[6] = organism: Mus musculus; test: Cytotoxicity against Balb/c mouse T cells assessed as decrease in cell viability at 1 uM after 48 hrs by MTT assay; format: toxicity, cell-based
[7] = Immunosuppressive activity in Balb/c mouse T cells assessed as inhibition of ConA-induced cell proliferation at 100 uM after 48 hrs by MTT assay relative to control; format: functional
[8] = Immunosuppressive activity in Balb/c mouse B cells assessed as inhibition of LPS-induced cell proliferation at 100 uM after 48 hrs by MTT assay relative to control; format: functional
[9] = Immunosuppressive activity in Balb/c mouse B cells assessed as inhibition of LPS-induced cell proliferation at 10 uM after 48 hrs by MTT assay relative to control; format: functional
[10] = Immunosuppressive activity in Balb/c mouse B cells assessed as inhibition of LPS-induced cell proliferation at 1 uM after 48 hrs by MTT assay relative to control; format: functional
[11] = system: T-cell; test: Immunosuppressive activity in Balb/c mouse T cells assessed as inhibition of ConA-induced cell proliferation after 48 hrs by MTT assay relative to control; format: functional, cell-based
[12] = Immunosuppressive activity in Balb/c mouse T cells assessed as inhibition of ConA-induced cell proliferation at 10 uM after 48 hrs by MTT assay relative to control; format: functional
[13] = Immunosuppressive activity in Balb/c mouse T cells assessed as inhibition of ConA-induced cell proliferation at 1 uM after 48 hrs by MTT assay relative to control; format: functional
[14] = system: B; test: Immunosuppressive activity in Balb/c mouse B cells assessed as inhibition of LPS-induced cell proliferation after 48 hrs by MTT assay relative to control; format: functional, cell-based

Structure (SMILES) | Activity [1] | Activity [2] | Activity [3] | Activity [4] | Activity [5] | Activity [6] | inhibition at 100 µM [7] [%] | inhibition at 100 µM [8] [%] | inhibition at 10 µM [9] [%] | inhibition at 1 µM [10] [%] | inhibition [11] | inhibition at 10 µM [12] [%] | inhibition at 1 µM [13] [%] | inhibition [14]
COc1cc(-n2cc(COC(=O)[C@H](C)[C@@H]3CCc4c(C)cc(OC(C)=O)c(C)c4C3)nn2)cc(OC)c1OC | Non-Toxic | Toxic | Toxic | Non-Toxic | Toxic | Toxic | 83.3 | 89.3 | 22.1 | 42 | Dose-dependent effect | 37.1 | 45.5 | Dose-dependent effect
CC(=O)Oc1cc(C)c2c(c1C)C[C@H]([C@@H](C)C(=O)OCc1cn(-c3ccc(O)cc3)nn1)CC2 | Toxic | Toxic | Non-Toxic | Toxic | Toxic | Non-Toxic | 17.6 | 29.7 | 26.3 | 36.6 | Dose-dependent effect | 5.55 | 33.3 | Dose-dependent effect
CC(=O)Oc1cc(C)c2c(c1C)C[C@H]([C@@H](C)C(=O)OCc1cn(-c3ccc(CC#N)cc3)nn1)CC2 | Toxic | Toxic | Toxic | Toxic | Toxic | Toxic | 68.9 | 65.6 | 58.8 | 59.5 | Dose-dependent effect | 47 | 21.2 | Dose-dependent effect
CC(=O)Oc1cc(C)c2c(c1C)C[C@H]([C@@H](C)C(=O)OCc1cn(-c3ccccc3F)nn1)CC2 | Non-Toxic | Non-Toxic | Non-Toxic | Non-Toxic | Non-Toxic | Non-Toxic | 5.88 | 39.6 | 34.6 | 50.5 | Dose-dependent effect | 11.8 | 53.7 | Dose-dependent effect
CC(=O)Oc1cc(C)c2c(c1C)C[C@H]([C@@H](C)C(=O)OCc1cn(-c3cccc([N+](=O)[O-])c3)nn1)CC2 | Non-Toxic | Toxic | Toxic | Non-Toxic | Toxic | Toxic | 10.2 | 24.6 | 26.9 | 29.1 | Dose-dependent effect | 30.6 | 45.4 | Dose-dependent effect
CC(=O)Oc1cc(C)c2c(c1C)C[C@H]([C@@H](C)C(=O)OCc1cn(-c3cccnc3Cl)nn1)CC2 | Non-Toxic | Toxic | Toxic | Non-Toxic | Toxic | Toxic | 17.6 | 22.5 | 15.4 | 30.8 | Dose-dependent effect | 25 | 5.88 | Dose-dependent effect
CC(=O)Oc1cc(C)c2c(c1C)C[C@H]([C@@H](C)C(=O)OCc1cn(Cc3ccccc3)nn1)CC2 | Toxic | Non-Toxic | Non-Toxic | Toxic | Non-Toxic | Non-Toxic | 44 | 32.3 | 33.5 | 48.6 | Dose-dependent effect | 39.2 | 33 | Dose-dependent effect
CC(=O)Nc1ccc(-n2cc(COC(=O)[C@H](C)[C@@H]3CCc4c(C)cc(OC(C)=O)c(C)c4C3)nn2)cc1 | Toxic | Toxic | Toxic | Toxic | Toxic | Toxic | 33.8 | 39 | 31.3 | 24.2 | Dose-dependent effect | 50 | 22.1 | Dose-dependent effect
COc1ccc(-n2cc(COC(=O)[C@H](C)[C@@H]3CCc4c(C)cc(OC(C)=O)c(C)c4C3)nn2)cc1 | Toxic | Non-Toxic | Toxic | Toxic | Non-Toxic | Toxic | 30.1 | 15.4 | 36.8 | 42.3 | Dose-dependent effect | 36 | 33.8 | Dose-dependent effect
CC(=O)Oc1cc(C)c2c(c1C)C[C@H]([C@@H](C)C(=O)OCc1cn(-c3ccc(Cl)cc3)nn1)CC2 | Toxic | Non-Toxic | Toxic | Toxic | Non-Toxic | Toxic | 13 | 34.3 | 25.1 | 34.3 | Dose-dependent effect | 28.7 | 37 | Dose-dependent effect
CC(=O)Oc1cc(C)c2c(c1C)C[C@H]([C@@H](C)C(=O)OCc1cn(-c3ccc(C#N)cc3)nn1)CC2 | Toxic | Toxic | Toxic | Toxic | Toxic | Toxic | 59.8 | 67.9 | 80.9 | 76.3 | Dose-dependent effect | 52.3 | 35.6 | Dose-dependent effect
CC(=O)Oc1cc(C)c2c(c1C)C[C@H]([C@@H](C)C(=O)OCc1cn(-c3ccc(NC(=O)c4ccccc4)cc3)nn1)CC2 | Non-Toxic | Toxic | Non-Toxic | Non-Toxic | Toxic | Non-Toxic | 38.2 | 19.2 | 35.2 | 36.8 | Dose-dependent effect | 30.9 | 7.35 | Dose-dependent effect
CCCCCn1cc(COC(=O)[C@H](C)[C@@H]2CCc3c(C)cc(OC(C)=O)c(C)c3C2)nn1 | Toxic | Toxic | Toxic | Toxic | Toxic | Toxic | 30.6 | 43.1 | 41.9 | 42.4 | Dose-dependent effect | 27.6 | 15.6 | Dose-dependent effect
CC(=O)Oc1cc(C)c2c(c1C)C[C@H]([C@@H](C)C(=O)OCc1cn(-c3cc(I)ccc3C)nn1)CC2 | Toxic | Toxic | Non-Toxic | Toxic | Toxic | Non-Toxic | 26.5 | 28 | 34.6 | 39 | Dose-dependent effect | 38.2 | 34.5 | Dose-dependent effect
CC(=O)Oc1cc(C)c2c(c1C)C[C@H]([C@@H](C)C(=O)OCc1cn(-c3ccccc3CO)nn1)CC2 | Toxic | Toxic | Toxic | Toxic | Toxic | Toxic | 81.1 | 53.4 | 64.1 | 60.3 | Dose-dependent effect | 32.6 | 17.4 | Dose-dependent effect
